Patent US11390616B2 (BRISTOL-MYERS SQUIBB COMPANY, priority 2015, dated 2022)

What follows are compounds tested against T1, human APJ receptor (Homo sapiens, UniProt P35414) (assay: Intracellular cAMP accumulation assay (APJ hcAMP, HTRF)). Details: HEK293 cells stably expressing human APJ receptor; inhibition of forskolin-mediated cAMP production; read-out: APJ cAMP Potency range.
T1 construct: expressed in transfected cells; host or cells: HEK293
T1 sequence (P35414 1-380): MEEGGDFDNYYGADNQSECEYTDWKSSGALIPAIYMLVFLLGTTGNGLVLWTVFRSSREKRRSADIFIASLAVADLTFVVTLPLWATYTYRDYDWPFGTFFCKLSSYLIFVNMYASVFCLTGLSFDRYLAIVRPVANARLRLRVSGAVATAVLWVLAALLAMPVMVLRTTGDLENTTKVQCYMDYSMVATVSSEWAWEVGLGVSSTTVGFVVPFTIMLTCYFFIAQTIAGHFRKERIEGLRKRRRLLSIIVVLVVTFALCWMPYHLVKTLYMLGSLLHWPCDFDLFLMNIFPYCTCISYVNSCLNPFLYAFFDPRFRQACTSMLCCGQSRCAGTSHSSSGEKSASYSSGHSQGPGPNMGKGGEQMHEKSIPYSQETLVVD
Assay type: cell-based
Method in brief: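 Inhibition of forskolin (2 μM)-driven cAMP, with […], measured by HTRF after 30 min room-temperature compound exposure of stably transfected HEK293 cells. cAMP read from a standard curve; variable-slope fit gives EC50, and maximal inhibition is normalised to (Pyr1)apelin-13 as 100%.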
`CCOCc1nc(=O)c(Cc2ccc(-c3ccc(F)nc3C)cc2)c(O)n1[C@@H](COC)c1cc(F)cc(F)c1` [Example 124, 1-[(1R)-1-(3,5-difluorophenyl)-2-methoxyethyl]-2-(ethoxymethyl)-5-{[4-(6-fluoro-2-methylpyridin-3-yl)phenyl]methyl}-6-hydroxy-1,4-dihydropyrimidin-4-one] was tested, and the EC50 was 0.01 to 10 nM. Compound `CCOCc1nc(=O)c(Cc2ccc(-c3ccc(F)nc3)cc2)c(O)n1[C@@H](COC)c1cc(F)cc(F)c1` [Example 125, 1-[(1R)-1-(3,5-difluorophenyl)-2-methoxyethyl]-2-(ethoxymethyl)-5-{[4-(6-fluoropyridin-3-yl)phenyl]methyl}-6-hydroxy-1,4-dihydropyrimidin-4-one] has an EC50 of 10 to 100 nM. Compound `CCOCc1nc(=O)c(Cc2ccc(-c3ccnc(F)c3C)cc2)c(O)n1[C@@H](COC)c1cc(F)cc(F)c1` [Example 126, 1-[(1R)-1-(3,5-difluorophenyl)-2-methoxyethyl]-2-(ethoxymethyl)-5-{[4-(2-fluoro-3-methylpyridin-4-yl)phenyl]methyl}-6-hydroxy-1,4-dihydropyrimidin-4-one] has an EC50 of 0.01 to 10 nM. In the case of `CCCCc1nc(=O)c(Cc2cccc(-c3ccncc3C)c2)c(O)n1[C@@H](CC)c1cc(F)cc(F)c1` [Example 127, 2-butyl-1-[(1S)-1-(3,5-difluorophenyl)propyl]-6-hydroxy-5-{[3-(3-methylpyridin-4-yl)phenyl]methyl}-1,4-dihydropyrimidin-4-one], the EC50 is reported as 10 to 100 nM. `CCCCc1nc(=O)c(Cc2cccc(-c3ccnc(F)c3C)c2)c(O)n1[C@@H](CC)c1cc(F)cc(F)c1` [Example 128, 2-butyl-1-[(1S)-1-(3,5-difluorophenyl)propyl]-5-{[3-(2-fluoro-3-methylpyridin-4-yl)phenyl]methyl}-6-hydroxy-1,4-dihydropyrimidin-4-one] showed an EC50 of 10 to 100 nM. Compound `CCCCc1nc(=O)c(Cc2cccc(-c3cccnc3C)c2)c(O)n1[C@@H](CC)c1cc(F)cc(F)c1` [Example 129, 2-butyl-1-[(1S)-1-(3,5-difluorophenyl)propyl]-6-hydroxy-5-{[3-(2-methylpyridin-3-yl)phenyl]methyl}-1,4-dihydropyrimidin-4-one] has an EC50 of 10 to 100 nM. Work on `CCCCc1nc(=O)c(Cc2cccc(-c3ccc(F)nc3C)c2)c(O)n1[C@@H](CC)c1cc(F)cc(F)c1` [Example 130, 2-butyl-1-[(1S)-1-(3,5-difluorophenyl)propyl]-5-{[3-(6-fluoro-2-methylpyridin-3-yl)phenyl]methyl}-6-hydroxy-1,4-dihydropyrimidin-4-one] yielded an EC50 of 0.01 to 10 nM. In the case of `CCCCc1nc(=O)c(Cc2cccc(-c3ccc(F)cc3C(N)=O)c2)c(O)n1[C@@H](CC)c1cc(F)cc(F)c1` [Example 131, 3′-({2-butyl-1-[(1S)-1-(3,5-difluorophenyl)propyl]-6-hydroxy-4-oxo-1,4-dihydropyrimidin-5-yl}methyl)-4-fluoro-[1,1′-biphenyl]-2-carboxamide], the EC50 is reported as 10 to 100 nM. `CC[C@@H](c1cc(F)cc(F)c1)n1c(-c2ccn(CC)n2)nc(=O)c(Cc2ccc(-c3ccnc(F)c3C)cc2)c1O` [Example 132, 1-[(1S)-1-(3,5-difluorophenyl)propyl]-2-(1-ethyl-1H-pyrazol-3-yl)-5-{[4-(2-fluoro-3-methylpyridin-4-yl)phenyl]methyl}-6-hydroxy-1,4-dihydropyrimidin-4-one] gave an EC50 of 0.01 to 10 nM. For `CC[C@@H](c1cc(F)cc(F)c1)n1c(-c2ccn(CC)n2)nc(=O)c(Cc2ccc(-c3cccnc3C)cc2)c1O` [Example 133, 1-[(1S)-1-(3,5-difluorophenyl)propyl]-2-(1-ethyl-1H-pyrazol-3-yl)-6-hydroxy-5-{[4-(2-methylpyridin-3-yl)phenyl]methyl}-1,4-dihydropyrimidin-4-one], the EC50 was 0.01 to 10 nM. In the case of `CC[C@@H](c1cc(F)cc(F)c1)n1c(-c2ccn(CC)n2)nc(=O)c(Cc2ccc(-c3ccc(F)nc3C)cc2)c1O` [Example 134, 1-[(1S)-1-(3,5-difluorophenyl)propyl]-2-(1-ethyl-1H-pyrazol-3-yl)-5-{[4-(6-fluoro-2-methylpyridin-3-yl)phenyl]methyl}-6-hydroxy-1,4-dihydropyrimidin-4-one], the EC50 is reported as 0.01 to 10 nM. `CC[C@@H](c1cc(F)cc(F)c1)n1c(-c2ccn(CC)n2)nc(=O)c(Cc2ccc(-c3ccc(F)nc3)cc2)c1O` [Example 135, 1-[(1S)-1-(3,5-difluorophenyl)propyl]-2-(1-ethyl-1H-pyrazol-3-yl)-5-{[4-(6-fluoropyridin-3-yl)phenyl]methyl}-6-hydroxy-1,4-dihydropyrimidin-4-one] showed an EC50 of 0.01 to 10 nM. In the case of `CC[C@@H](c1cc(F)cc(F)c1)n1c(-c2ccn(CC)n2)nc(=O)c(Cc2ccc(-c3ccncc3C)cc2)c1O` [Example 136, 1-[(1S)-1-(3,5-difluorophenyl)propyl]-2-(1-ethyl-1H-pyrazol-3-yl)-6-hydroxy-5-{[4-(3-methylpyridin-4-yl)phenyl]methyl}-1,4-dihydropyrimidin-4-one], the EC50 is reported as 0.01 to 10 nM.
